Tumor signal enhancement data for one substance are collected here from patent US8466107B2, “Fibrin-binding peptides and conjugates thereof” (Bracco Imaging SpA, priority 2006, dated 2013).

This experiment deals with neuroblastoma (Neuro-2a) tumor. Put plainly: In vivo MRI test of fibrin imaging in neuroblastoma tumor mouse model. The conditions noted are these: mice with neuroblastoma tumor; 25 μmol/kg iv.; T1 weighted MRI at 2T, 4 h post injection. From the text: Three groups of 5 mice each, inoculated with 2·10^6 neuroblastoma cells with PBS, were formed and tested as follows: • Group a: Reference compound 2, • Group b: Chelate Complex 1 • Group c: ProHance® (see Protocol)
At day-10 post tumor cells inoculation, at least 4 mice per group with similar tumor size (5-10 mm in diameter) were selected for the in vivo MRI tests. After pre-contrast MRI acquisition (T1 and T2 high resolution 2D spin-echo and 3D gradient echo images), the test compounds were administered (25 μmol/kg iv.) and MRI was performed at 4 h and 24 h post injection. Maximum signal intensity was measured in the entire tumor area and in each post contrast image covering the whole tumor and the signal was compared to the pre-contrast images. At the end of MRI exams, all animals were sacrificed and the tumor, blood, liver, kidneys and femoral bone were removed and prepared for Gd assay by ICP-AES. […]
The mean signal intensity was measured within a region of interest (ROI) including the entire tumor, drawn by an operator on each MR image using dedicated software (MR Research Systems Ltd, Surrey UK). Signal intensity enhancement (Enh %) was determined as: Enh%=100*(SIx(t)−SI0)/SI0 […]

Bridge positions count the residues as written; N and C are the ends.

With “Chelated Complex 1: Gd chelated complex (four DTPA-Glu units on branched lysine linker) conjugated to the fibrin-binding peptide; MRI contrast agent (Ac-WQPCPAESWTFCWDPGGGK-NH2; disulfide 4-12; not fully specified (some residues); also: further groups not given here)”, the tumor signal enhancement entry is “significant tumor signal enhancement”.
